Results: US20230085307A1, “PYRIDAZINONE COMPOUND AND HERBICIDE” (NISSAN CHEMICAL CORPORATION, priority 2019, published 2023)

Columns and labels:
barnyard grass = assay: Test Example 5: herbicidal effect by foliage application, plastic box (Table 20, symbol H); assay type: in vivo, barnyard grass (Echinochloa crus-galli); settings: foliage application, evaluated three weeks after application; for herbicidal effect on H: barnyard grass (criteria 0-5): 320 g/ha; for H: barnyard grass, herbicidal effect (criteria 0-5): AAH 320 g/ha
Method in brief: (§1)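 Plants were sown into sterilized diluvial soil under about 1.5 cm cover and kept in a greenhouse at 25° C. to 30° C. Fourteen days on, foliage received an even spray of the diluted emulsion. Herbicidal or crop effect was judged three weeks afterwards.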

blackgrass [1] = assay: Test Example 5: herbicidal effect by foliage application, plastic box (Table 20, symbol J); assay type: in vivo, blackgrass (Alopecurus myosuroides); settings: foliage application, evaluated three weeks after application; for herbicidal effect on J: blackgrass (criteria 0-5): 320 g/ha; for J: blackgrass, herbicidal effect (criteria 0-5): AAH 320 g/ha
Method in brief: as §1

redroot pigweed [2] = assay: Test Example 5: herbicidal effect by foliage application, plastic box (Table 20, symbol N); assay type: in vivo, redroot pigweed (Amaranthus retroflexus); settings: foliage application, evaluated three weeks after application; for herbicidal effect on N: redroot pigweed (criteria 0-5): 320 g/ha; for N: redroot pigweed, herbicidal effect (criteria 0-5): AAH 320 g/ha
Method in brief: as §1

oval-leafed pondweed [3] = assay: Test Example 1: herbicidal activity, application before weed generation under submerged conditions (Table 16, symbol C); assay type: in vivo, oval-leafed pondweed (Monochoria vaginalis); settings: 320 g/ha applied herbicide
Method in brief: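 Emulsion formulation, water-diluted to set dose, was put onto the flooded surface (4 cm depth, alluvial soil) the same day weeds were sown and 2.5-leaf rice transplanted. After 3 weeks at 25-30 °C under glass, each species was rated 0 (≤5% kill) to 5 (≥90% kill).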

chickweed [4] = assay: Test Example 4: herbicidal effect by soil treatment (Table 19, symbol P); assay type: in vivo, common chickweed (Stellaria media); settings: amount of applied herbicide 320 g/ha
Method in brief: (§2)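 Pre-emergence style soil spray: seeds under ~1.5 cm sterilized diluvial soil received a uniform coat of emulsion diluted to the predetermined herbicide amount. Greenhouse 25–30° C; readout at week three on previously defined criteria.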

chickweed [5] = assay: Test Example 5: herbicidal effect by foliage application, plastic box (Table 20, symbol P); assay type: in vivo, common chickweed (Stellaria media); settings: foliage application, evaluated three weeks after application; for herbicidal effect on P: chickweed (criteria 0-5): 320 g/ha; for P: chickweed, herbicidal effect (criteria 0-5): AAH 320 g/ha
Method in brief: as §1

persian speedwell = assay: Test Example 4: herbicidal effect by soil treatment (Table 19, symbol R); assay type: in vivo, Persian speedwell (Veronica persica); settings: amount of applied herbicide 320 g/ha
Method in brief: as §2

rice flat sedge = assay: Test Example 3: herbicidal effect by foliage application, Wagner pot (Table 18, symbol E); assay type: in vivo, rice flat sedge (Cyperus iria); settings: amount of applied herbicide 320 g/ha
Method in brief: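 Plants were sown in alluvial soil held under 0.1–0.5 cm standing water and grown 14 days in a greenhouse at 25–30 °C. An emulsifiable formulation, water-diluted to the set dose, was then sprayed onto the foliage, and effects were scored three weeks later using previously defined criteria.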

wild oat = assay: Test Example 4: herbicidal effect by soil treatment (Table 19, symbol I); assay type: in vivo, wild oat (Avena fatua); settings: amount of applied herbicide 320 g/ha
Method in brief: as §2

blackgrass [6] = assay: Test Example 4: herbicidal effect by soil treatment (Table 19, symbol J); assay type: in vivo, blackgrass (Alopecurus myosuroides); settings: amount of applied herbicide 320 g/ha
Method in brief: as §2

redroot pigweed [7] = assay: Test Example 4: herbicidal effect by soil treatment (Table 19, symbol N); assay type: in vivo, redroot pigweed (Amaranthus retroflexus); settings: amount of applied herbicide 320 g/ha
Method in brief: as §2

green foxtail [8] = assay: Test Example 5: herbicidal effect by foliage application, plastic box (Table 20, symbol G); assay type: in vivo, green foxtail (Setaria viridis); settings: foliage application, evaluated three weeks after application; for herbicidal effect on G: green foxtail (criteria 0-5): 320 g/ha; for G: green foxtail, herbicidal effect (criteria 0-5): AAH 320 g/ha
Method in brief: as §1

Italian ryegrass = assay: Test Example 4: herbicidal effect by soil treatment (Table 19, symbol K); assay type: in vivo, Italian ryegrass (Lolium multiflorum); settings: amount of applied herbicide 320 g/ha
Method in brief: as §2

oval-leafed pondweed [9] = assay: Test Example 2: herbicidal activity, application during weed generation under submerged conditions (Table 17, symbol C); assay type: in vivo, oval-leafed pondweed (Monochoria vaginalis); settings: AAH 320 g/ha; application during weed generation, submerged conditions
Method in brief: (§3)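 Herbicide emulsion, diluted with water to the chosen amount, is applied onto 4 cm floodwater over alluvial soil where the weeds were co-sown and raised at 25–30° C. Application timing: 1–2 leaves. Assessment: three weeks afterwards.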

green foxtail [10] = assay: Test Example 4: herbicidal effect by soil treatment (Table 19, symbol G); assay type: in vivo, green foxtail (Setaria viridis); settings: amount of applied herbicide 320 g/ha
Method in brief: as §2

late watergrass = assay: Test Example 2: herbicidal activity, application during weed generation under submerged conditions (Table 17, symbol A); assay type: in vivo, late watergrass (Echinochloa oryzicola); settings: AAH 320 g/ha; application during weed generation, submerged conditions
Method in brief: as §3

SMILES	herbicidal effect on H: barnyard grass (criteria 0-5) (barnyard grass)	herbicidal effect on J: blackgrass (criteria 0-5) (blackgrass [1])	herbicidal effect on N: redroot pigweed (criteria 0-5) (redroot pigweed [2])	Herbicidal effect on C: oval-leafed pondweed (grade 0-5) (oval-leafed pondweed [3])	herbicidal effect on P: chickweed (chickweed [4])	herbicidal effect on P: chickweed (criteria 0-5) (chickweed [5])	herbicidal effect on R: persian speedwell (persian speedwell)	herbicidal effect on E: rice flat sedge (rice flat sedge)	herbicidal effect on I: wild oat (wild oat)	herbicidal effect on J: blackgrass (blackgrass [6])	herbicidal effect on N: redroot pigweed (redroot pigweed [7])	herbicidal effect on G: green foxtail (criteria 0-5) (green foxtail [8])	herbicidal effect on K: Italian ryegrass (Italian ryegrass)	herbicidal effect rating, C: oval-leafed pondweed (oval-leafed pondweed [9])	herbicidal effect on G: green foxtail (green foxtail [10])	herbicidal effect rating, A: late watergrass (late watergrass)	H: barnyard grass, herbicidal effect (criteria 0-5) (barnyard grass)	J: blackgrass, herbicidal effect (criteria 0-5) (blackgrass [1])	N: redroot pigweed, herbicidal effect (criteria 0-5) (redroot pigweed [2])	P: chickweed, herbicidal effect (criteria 0-5) (chickweed [5])	other results
CCCSc1ccc(-c2sc3ccc(F)cc3c2-c2c(OC(=O)CCC)c(C)nn(C)c2=O)cc1 [2-249]	5 (Herbicidal rate of 90% or more (almost completely withered))	4 (Herbicidal rate of 70% or more and less than 90%)	5 (Herbicidal rate of 90% or more (almost completely withered))	0 (Herbicidal rate of 5% or less (almost no effect))	0 (Herbicidal rate of 5% or less (almost no effect))	5 (Herbicidal rate of 90% or more (almost completely withered))	4 (Herbicidal rate of 70% or more and less than 90%)	5 (Herbicidal rate of 90% or more (almost completely withered))	0 (Herbicidal rate of 5% or less (almost no effect))	0 (Herbicidal rate of 5% or less (almost no effect))	5 (Herbicidal rate of 90% or more (almost completely withered))	5 (Herbicidal rate of 90% or more (almost completely withered))	0 (Herbicidal rate of 5% or less (almost no effect))	2 (Herbicidal rate of 20% or more and less than 40%)	4 (Herbicidal rate of 70% or more and less than 90%)	4 (Herbicidal rate of 70% or more and less than 90%)					
Cc1nn(C)c(=O)c(-c2c(-c3ccc(SC(C)C)cc3)sc3ccc(F)cc23)c1O [2-252]	5 (Herbicidal rate of 90% or more (almost completely withered))	5 (Herbicidal rate of 90% or more (almost completely withered))	5 (Herbicidal rate of 90% or more (almost completely withered))	1 (Herbicidal rate of 5% or more and less than 20%)	5 (Herbicidal rate of 90% or more (almost completely withered))	5 (Herbicidal rate of 90% or more (almost completely withered))	5 (Herbicidal rate of 90% or more (almost completely withered))	5 (Herbicidal rate of 90% or more (almost completely withered))	0 (Herbicidal rate of 5% or less (almost no effect))	0 (Herbicidal rate of 5% or less (almost no effect))	5 (Herbicidal rate of 90% or more (almost completely withered))	4 (Herbicidal rate of 70% or more and less than 90%)	3 (Herbicidal rate of 40% or more and less than 70%)	2 (Herbicidal rate of 20% or more and less than 40%)	1 (Herbicidal rate of 5% or more and less than 20%)	4 (Herbicidal rate of 70% or more and less than 90%)					
CCCC(=O)Oc1c(C)nn(C)c(=O)c1-c1c(-c2ccc(SC(C)C)cc2)sc2ccc(F)cc12 [2-253]				0 (Herbicidal rate of 5% or less (almost no effect))	3 (Herbicidal rate of 40% or more and less than 70%)		2 (Herbicidal rate of 20% or more and less than 40%)	4 (Herbicidal rate of 70% or more and less than 90%)	0 (Herbicidal rate of 5% or less (almost no effect))	0 (Herbicidal rate of 5% or less (almost no effect))	5 (Herbicidal rate of 90% or more (almost completely withered))		0 (Herbicidal rate of 5% or less (almost no effect))	3 (Herbicidal rate of 40% or more and less than 70%)	0 (Herbicidal rate of 5% or less (almost no effect))	3 (Herbicidal rate of 40% or more and less than 70%)	5 (Herbicidal rate of 90% or more (almost completely withered))	4 (Herbicidal rate of 70% or more and less than 90%)	5 (Herbicidal rate of 90% or more (almost completely withered))	5 (Herbicidal rate of 90% or more (almost completely withered))	G: green foxtail, herbicidal effect (criteria 0-5) (green foxtail [8]): 5 (Herbicidal rate of 90% or more (almost completely withered))
CCCC(=O)Oc1c(C)nn(C)c(=O)c1-c1c(-c2ccc(SC3CC3)cc2)sc2ccc(F)cc12 [2-255]				3 (Herbicidal rate of 40% or more and less than 70%)	4 (Herbicidal rate of 70% or more and less than 90%)		5 (Herbicidal rate of 90% or more (almost completely withered))	5 (Herbicidal rate of 90% or more (almost completely withered))	0 (Herbicidal rate of 5% or less (almost no effect))	1 (Herbicidal rate of 5% or more and less than 20%)	4 (Herbicidal rate of 70% or more and less than 90%)		3 (Herbicidal rate of 40% or more and less than 70%)	2 (Herbicidal rate of 20% or more and less than 40%)	1 (Herbicidal rate of 5% or more and less than 20%)	4 (Herbicidal rate of 70% or more and less than 90%)	5 (Herbicidal rate of 90% or more (almost completely withered))	5 (Herbicidal rate of 90% or more (almost completely withered))	5 (Herbicidal rate of 90% or more (almost completely withered))	5 (Herbicidal rate of 90% or more (almost completely withered))	G: green foxtail, herbicidal effect (criteria 0-5) (green foxtail [8]): 5 (Herbicidal rate of 90% or more (almost completely withered))
